Laboratory results reported in US9078436B2 (priority 2012, dated 2015).
Where two headings read alike, the source gives them in different places.

Key:
[1] = pH of 0.1M solution of the acids tested (Table 1); type: physicochemical
[2] = Conversion of PNMDC to MITC as a function of pH; type: physicochemical; settings: FIGS. 1 and 2; over three hours and over five minutes
Description: In the decomposition of monoalkyldithiocarbamate salt, the rate at which alkyl isothiocyanate is formed can be determined by the pH of the solution. […] At lower pH levels, a competing reaction, particularly hydrolysis to form carbon disulfide and methylammonium ion, can occur, thus lowering the yield of MITC.
While good conversion can occur over a range of pH values, the results shown in FIGS. 1 and 2 indicate an optimum conversion occurring at about pH 3 (e.g., 2.5-3.5).
An HPLC method was developed to allow the reaction mixtures to be analyzed in real time. This procedure stopped the decomposition of PNMDC by converting any unreacted dithiocarbamate ion to a stable nickel salt:
This compound was then detected by its UV absorption at 365 nm. MITC is unaffected by the presence of the Ni^++ ion and is detected by its UV absorption at 230 nm.

Structure (SMILES) | pH of 0.1M Solution [1] | pH of 0.1M Solution ([1]; listed as Citric Acid (2)) | pH of optimum conversion of PNMDC to MITC [2]
CC(=O)O [Acetic Acid] | 2.88 |  | 
O=C(O)c1ccccc1 [Benzoic Acid] | 2.61 |  | 
O=C(O)CC(O)(CC(=O)O)C(=O)O [Citric Acid (1), Citric Acid] | 2.06 | 2.88 | 
O=CO [Formic Acid] | 2.39 |  | 
CNC(=S)[S-].[K+] [PNMDC, potassium N-methyldithiocarbamate] |  |  | ~3
